Experimental findings from patent publication US20110112149A1, “EPOTHILONE ANALOGUES, THEIR PHARMACEUTICAL COMPOSITIONS, THEIR USE AND THEIR PREPA RATIONS” (priority 2008, published 2011) are described below.

pIC50: −log10 of the molar value. Read-outs that look alike come from different tables or passages of the source.

Holding throughout (type): cell-based
One test concerns NCI-H460 (Lung Cancer). The test can be described thus: SRB cytotoxicity assay, NCI-H460. The following applies: cells cultured 3 days with compound, read-out: Activity against cancer cell lines (IC50), NCI-H460 (Lung Cancer). The text has this: (§1) The compounds of the present invention can be screened by conventional assays known in the art. For example, cytotoxicity of the compound can be determined according to SRB assay described in Skehan et. al., J. Natl. Cancer Inst. 1990, 82: 1107, which is incorporated herein by reference.
(§2) In the study, sulforhodamine B (SRB) was used for screening the selective compounds of the present invention according to their anti-tumor activity on four different tumor cell lines. In SRB assay, the cultured cells were trypsinized, then counted and diluted to a suitable concentration (5000-7500 cells/100 μl) with a culture medium. The cells were inoculated into a 96-well microtiter plate at 100 μl suspension/well. The test compounds were diluted in the culture medium to 2×1000 nM˜2×0.001 nM, and added to each well in 100 μl after 20 hours. The cells were then cultured for 3 days, fixed with 100 μl 10% trichloroacetic acid at 4° C. for 1 hour, and then stained with 0.2% SRB/1% acetic acid at room temperature for 20 min. The unbound dye was rinsed with 1% acetic acid. The bound dye was dissolved with 200 μl 10 mM Tris-base. The amount of the bound dye was calculated from OD value detected at wavelength of 515 nm. The amount of the bound dye was in direct proportion to the total amount of cell proteins. The data was analyzed with Kaleida Graph Program, and the half inhibitory concentration (IC50) was calculated. Epothilones D and B were detected in parallel for comparison. The results of the cytotoxic experiments on the tested selective compounds according to the present invention are shown as follows. The other compounds according to the present invention may also be detected with the similar method.
(In SRB staining, fixed cells bind dye roughly in proportion to their protein.)

In test [1] the test system is NCI/ADR-RES (MDR Breast Cancer). The test can be described thus: SRB cytotoxicity assay, NCI/ADR-RES. The following applies: cells cultured 3 days with compound, read-out: Activity against cancer cell lines (IC50), NCI/ADR-RES (MDR Breast Cancer).
Excerpt: as §1, §2

Another test concerns MCF-7 (Breast Cancer). The test can be described thus: SRB cytotoxicity assay, MCF-7. Particulars: cells cultured 3 days with compound, read-out: Activity against cancer cell lines (IC50), MCF-7 (Breast Cancer).
Excerpt: as §1, §2

In a further test the test system is SF-268 (Glioma). The test can be described thus: SRB cytotoxicity assay, SF-268. Particulars: cells cultured 3 days with compound, read-out: Activity against cancer cell lines (IC50), SF-268 (Glioma).
Excerpt: as §1, §2

Where [2] appears, read: Homo sapiens, NCI/ADR-RES, 72 h.

Take `C/C(=C\c1csc(C)n1)[C@@H]1C[C@@H]2O[C@]2(C)CCC[C@H](C)[C@H](O)[C@@H](C)C(=O)C(C)(C)[C@@H](O)CC(=O)O1` [Epo B, Epothilone B, reference compound]: the pIC50 in the test with NCI-H460 (Lung Cancer) was 9.15; in test [1], 8.30; with MCF-7 (Breast Cancer), 9.30; with SF-268 (Glioma) it was 9.10.
For the molecule `Cc1nc2cc(C3OC(=O)CC(O)C(C)(C)C(=O)C(C)C(O)C(C)CCCC4(C)OC34)ccc2s1` (centres unmarked) [HH8], the pIC50 in the test on NCI-H460 (Lung Cancer) (Homo sapiens, NCI-H460, 72 h) was 9.70; in test [1] (setting [2]), 9.30; in the test on MCF-7 (Breast Cancer) (Homo sapiens, MCF7, 72 h) it was 9.30; in the test on SF-268 (Glioma) (Homo sapiens, SF-268, 72 h) it was 9.00.
`C/C(=C\c1csc(C)n1)C1OC(=O)CC(O)C(C)(C)C(=O)C(C)C(O)C(C)CCCC2(C)OC12` (centres unmarked) [HH6]: the pIC50 with NCI-H460 (Lung Cancer) (Homo sapiens, NCI-H460, 72 h) was 9.30; in test [1] (setting [2]) it was 9.00; with MCF-7 (Breast Cancer) (Homo sapiens, MCF7, 72 h) it was 9.70; with SF-268 (Glioma) (Homo sapiens, SF-268, 72 h), 9.00.
With `C/C1=C/C[C@@H](/C(C)=C/c2csc(C)n2)OC(=O)C[C@H](O)C(C)(C)C(=O)[C@H](C)[C@@H](O)[C@@H](C)CCC1` [Epo D, Epothilone D, reference compound], the pIC50 with NCI-H460 (Lung Cancer) is 7.77; in test [1], 7.38; with MCF-7 (Breast Cancer), 7.89; with SF-268 (Glioma), 7.74.
Consider `C/C(=C\c1csc(C)n1)C(N)C1OC(=O)CC(O)C(C)(C)C(=O)C(C)C(O)C(C)CCCC2(C)OC12` (centres unmarked) [HH3], for which the pIC50 was 9.30 with NCI-H460 (Lung Cancer) (Homo sapiens, NCI-H460, 72 h); 8.52 in test [1] (setting [2]); 9.00 in the test on MCF-7 (Breast Cancer) (Homo sapiens, MCF7, 72 h); 9.00 with SF-268 (Glioma) (Homo sapiens, SF-268, 72 h).
